In US20100210611A1, “COMBINATION THERAPY” (priority 2007, published 2010):
“And” between values parts separate entries of the source, which are not always exact repeats. Identical values can stand only once.

Legend:
[1] = Moisture and light sensitivity; assay type: physicochemical
[2] = Dose uniformity, Dosage Unit Sampling Apparatus (DUSA), USP <601>; assay type: physicochemical; settings: Spinhaler; for Total recovered / amount in Device + Capsule: listed as MON; for amount in Device + Capsule: nominal 1000 μg MON, 400 μg MOM
Experimental: Dose uniformity was determined using Apparatus B (Dosage Unit Sampling Apparatus—DUSA) at a flow rate of 100 L/min (test described in United States Pharmacopoeia (USP) 27 Chapter <601>). The USP recommends selecting a flow rate that creates a pressure drop of 4 kPa across the inhaler. With the Spinhaler, a 4 kPa pressure drop could not be achieved even at the maximum flow rate of 100 L/min. Based on the recommendations of Byron, et al., a flow rate of 100 L/min was selected since the Spinhaler is a low resistance device. See Michael Hindle and Peter R. Byron, “Dose emissions from marketed dry powder inhalers”, International Journal of Pharmaceutics 116 (1995) 169-177. The test was run for 2.4 seconds in order to pull 4 L of air. After a shot had been delivered, all pieces of the DUSA including the mouthpiece adapter were rinsed with solvent. To determine the amount of drug retained in the inhaler, all pieces of the inhaler were rinsed with solvent including the interior of the capsule. The samples were then assayed using the UV-Vis spectrophotometer.
Shot weight was obtained by measuring the weight loss due to the actuation of the device. The device was tared, a “shot” was wasted in the DUSA and the device was re-weighed to obtain the delivered shot weight. Dose and shot weight were deemed acceptable if they were within 75% to 125% of the theoretical values (USP <601>).
Dose Uniformity (DU) was performed according to USP Chapter <601> by using DUSA Apparatus B with the Spinhaler® device which is analogous to that described in section Dose Uniformity for Example 1. However, the HPLC was used to analyze the content of the drugs as described in the Blend Uniformity in this example.
Dose Uniformity was performed according to USP Chapter <601> by using DUSA Apparatus B with the Spinhaler® device and in a manner analogous to that described in section Dose Uniformity in Example 4, except the HPLC was used to analyze the content of the drugs as described in the Blend Uniformity in this example.

[3] = Example 4 blend, flow 61.5 L/min for 3.9 sec
[4] = Example 4 blend, flow 62.3 L/min for 3.9 sec
[5] = Example 4 blend, flow 62.8 L/min for 3.8 sec

## CC(C)(O)c1ccccc1CC[C@@H](SCC1(CC(=O)O)CC1)c1cccc(/C=C/c2ccc3ccc(Cl)cc3n2)c1 [Montelukast Acid, montelukast acid]
[1]
  moisture and light sensitivity: moisture sensitive and photosensitive
[2]; Example 4 blend
  DU based on nominal dose, % (Device + Capsule): *46.6%
  DU based on nominal dose, % (printed in Adapter + Filter column): 49.3%
  DU based on total recovered, % (Device + Capsule): **48.6%
  DU based on total recovered, % (printed in Adapter + Filter column): 51.4%
[2]; [3]
  Total recovered: 952.06 µg and 949.00 µg and 958.48 µg
  amount in Device + Capsule: 465.70 µg and 463.98 µg and 465.53 µg
[2]; [4]
  Total recovered: 983.22 µg and 979.15 µg
  amount in Device + Capsule: 462.40 µg and 459.39 µg
[2]; [5]
  Total recovered: 937.91 µg and 949.52 µg
  amount in Device + Capsule: 468.24 µg and 473.48 µg
[2]; Example 5 blend
  DU based on nominal dose, % (Device + Capsule): *44.5%
  DU based on nominal dose, % (printed in Adapter + Filter column): 47.8%
  DU based on total recovered, % (Device + Capsule): **48.2%
  DU based on total recovered, % (printed in Adapter + Filter column): 51.8%
